The values that follow come from patent publication US20240199525A1, “SHP2-Targeting Small Molecules For Use As Anti-Cancer Agents” (West Virginia University Board of Governors on behalf of …, priority 2022, published 2024).

Like-named read-outs stand apart in the source and are kept apart here.

Experiment [1] addresses T1, purified PTP domain of SHP1 (Homo sapiens (Human), UniProt P29350). The note with it: previously reported; cited from earlier work.
Experiment [2] concerns the target T2, purified PTP domain of SHP2 (Homo sapiens (Human), UniProt Q06124). The note with it: previously reported value; read-out: IC50 SHP2 PTPase activity, parent compound; cited from earlier work.
For experiment [3], the target named is T2, purified PTP domain of SHP2. The experiment can be described thus: PTPase assay with DiFMUP, SHP2. Format: biochemical. The note with it: for fold difference: SHP2 IC50 relative to CNBCA; for IC50: 1 nM enzyme, 20 μM DiFMUP, 37° C., 20 min.
For experiment [4], the target named is purified PTP domain of PTP1B (Homo sapiens (Human), UniProt P18031). The experiment can be described thus: PTPase assay with DiFMUP, PTP1B. It counts as biochemical.
Chain of purified PTP domain of PTP1B (P18031 3-277): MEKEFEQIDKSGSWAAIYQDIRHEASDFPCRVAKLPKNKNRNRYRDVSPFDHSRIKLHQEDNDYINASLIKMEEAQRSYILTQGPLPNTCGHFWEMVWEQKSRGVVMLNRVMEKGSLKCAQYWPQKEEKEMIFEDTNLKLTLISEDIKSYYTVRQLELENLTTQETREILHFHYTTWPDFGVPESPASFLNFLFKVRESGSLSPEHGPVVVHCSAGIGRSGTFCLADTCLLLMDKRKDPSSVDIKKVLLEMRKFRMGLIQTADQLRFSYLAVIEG
Experiment [5] has as its system BT474 and MDA-MB468 cells. The experiment can be described thus: Colony formation in soft agar, CNBCA. The note with it: 500 nM, 10 days. Format: cell-based.
Experiment [6] deals with FL-SHP2 (Homo sapiens (Human), UniProt Q06124). As to the kind of experiment: PTPase assay on FLAG-tagged FL-SHP2 immunoprecipitated from MDA-MB468 cells. It counts as biochemical. The note with it: 20 μM DiFMUP.
The target in experiment [7] is T1, purified PTP domain of SHP1. As to the kind of experiment: PTPase assay with DiFMUP, SHP1. Format: biochemical.
Experiment [8] concerns the target PTP1B (Homo sapiens (Human), UniProt P18031). As to the kind of experiment: CETSA with CNBCA, nontarget PTP1B in breast cancer cell lysates. It counts as binding. The note with it: 100 μM CNBCA.
In experiment [9] the test system is Akt and ERK1/2 activation in BT474 and MDA-MB468 cells. As to the kind of experiment: Immunoblotting for basal pERK1/2 and pAkt, CNBCA. Format: cell-based. The note with it: 48 h.
Experiment [10] deals with BT474 and MDA-MB468 cells. The experiment can be described thus: Cell growth in 2D culture, CNBCA. It counts as cell-based. The note with it: 500 nM, 72 h.
Experiment [11] addresses SHP2 (Homo sapiens (Human), UniProt Q06124). As to the kind of experiment: Enzyme kinetic studies with DiFMUP (Michaelis-Menten, Lineweaver-Burk). It counts as biochemical. The note with it: for Km: 36.05 in its absence.
Experiment [12] deals with BT474 and MDA-MB468 cells. As to the kind of experiment: Mammosphere formation in suspension culture, CNBCA. Format: cell-based. The note with it: 500 nM, 10 days.

Chain of PTP1B (P18031 whole entry): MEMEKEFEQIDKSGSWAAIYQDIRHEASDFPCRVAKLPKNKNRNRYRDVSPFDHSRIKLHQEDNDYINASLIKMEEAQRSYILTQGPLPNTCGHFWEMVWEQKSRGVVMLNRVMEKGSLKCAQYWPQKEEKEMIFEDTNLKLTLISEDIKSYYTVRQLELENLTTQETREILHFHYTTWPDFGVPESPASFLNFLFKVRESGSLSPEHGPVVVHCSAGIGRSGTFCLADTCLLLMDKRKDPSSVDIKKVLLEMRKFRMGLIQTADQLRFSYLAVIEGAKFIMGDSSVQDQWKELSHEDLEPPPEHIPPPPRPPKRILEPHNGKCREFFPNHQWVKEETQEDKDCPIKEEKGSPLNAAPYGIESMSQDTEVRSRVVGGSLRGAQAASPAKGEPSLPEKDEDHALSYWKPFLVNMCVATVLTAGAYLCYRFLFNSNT
T1 sequence (P29350 244-515): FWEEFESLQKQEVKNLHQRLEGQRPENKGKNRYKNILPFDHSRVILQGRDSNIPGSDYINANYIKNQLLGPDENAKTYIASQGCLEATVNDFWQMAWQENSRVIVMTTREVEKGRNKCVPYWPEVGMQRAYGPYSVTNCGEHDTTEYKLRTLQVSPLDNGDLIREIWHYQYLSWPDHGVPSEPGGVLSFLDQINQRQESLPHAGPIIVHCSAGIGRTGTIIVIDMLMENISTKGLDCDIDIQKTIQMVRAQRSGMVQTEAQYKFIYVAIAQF

Regarding `CCCCCCCCCOc1c(CCCC(=O)O)cc(-c2ccc(C(=O)O)cc2)cc1CCCC(=O)O` [CNBDA], in experiment [1], the “selective to SHP2 than to SHP1, parent compound” value is “approximately 25 fold”. The IC50 in experiment [2] was 5 µM. Also, the fold difference in experiment [3] stood at 5.7.
`CCCCCCCCCOc1ccc(-c2ccc(C(=O)O)cc2)cc1CCCC(=O)O` [CNBCA, 3′-(3-Carboxypropyl)-4′-(nonyloxy)-[1,1′-biphenyl]-4-carboxylic Acid]: the IC50 in experiment [4] (10 μM DiFMUP) is 25 µM; in [6], 0.615 µM; in [3], 0.87 µM; in experiment [7] (35 μM DiFMUP) it was 34.6 µM; in experiment [9] (BT474 and MDA-MB468 cells, band density, read-out: approximate IC50, SHP2 mediated Akt and ERK1/2 activation), approximately 1 µM. Further, the “Selectivity ratio, PTP1B” value in experiment [4] (PTP1B IC50 over SHP2 IC50) came to 28.73. For the same compound, in experiment [5], the “colony formation in soft agar” value was “fewer and smaller colonies”. Moreover, the “better SHP2 IC50 than CNBBA” value in experiment [3] was determined as 5.8 fold. The “better SHP2 IC50 than the parent compound CNBDA” value in experiment [3] worked out at 5.7 fold. Further, the “Selectivity ratio, SHP2” value in experiment [3] (SHP2 IC50 as reference) is given as 1.0. For the same compound, in experiment [3], the fold difference worked out at 1.0. The “more selective for SHP2 than for SHP1” value in experiment [7] (from IC50 values) was found to be 39.77 fold. Also, the figures for the “nontarget PTP1B remaining in solution, band density” value in experiment [8] (49° C.), in [8] (55° C.) and in experiment [8] (58° C.) were “approximately 50%”, 25% and “less than 10%”, respectively. Further, the “basal pERK1/2 and pAkt levels” value in experiment [9] (0.250 to 2.0 μM) is “downregulation of basal pERK1/2 and pAkt levels by CNBCA treatment in a concentration dependent manner”. The “cell growth in 2D culture” value in experiment [10] was “still half-confluent”. In experiment [11], the mechanism of inhibition result is given as “competitive inhibitor”. In addition, the values for the Km in [11] (in the presence of 1.0 μM CNBCA) and in experiment [11] (in the presence of 2.0 μM CNBCA) were 125 µM and 291 µM, respectively. The mammosphere formation result in [12] was “fewer and smaller mammospheres”.
As for `CCCCCCCCCOc1ccc(-c2ccc(CC(=O)O)cc2)cc1CCCC(=O)O` [CNBBA, 4-(4′-(Carboxymethyl)-4-(nonyloxy)-[1,1′-biphenyl]-3-yl) Butanoic Acid], in experiment [3], the IC50 amounted to 5.1 µM and the fold difference is reported as 5.8.
